# From patent US6466814B1, “Method of magnetic resonance investigation” (Amersham Health AS, priority 1998, dated 2002)
# Where two headings read alike, the source gives them in different places.
# What was measured:
# [1] = T1-values for the 13C atom in human bloodplasma; type: physicochemical; conditions: 37° C., 7 T
# Source text: (§1) T1-values for the ^13C atom in 1-^13C-2,2,2′,2′,2″,2″-hexadeuterotris(hydroxymethyl)nitromethane
# (§2) T1-values for the ^13C atom in 2-^13C-2,2-bis(trideuteromethyl)-1,1,3,3-tetradeuteropropane-1,3-diol
# [2] = 13C-signal enhancement after low-field pumping and dissolution (solution experiments); type: physicochemical; conditions: 20 mg solid in 3 ml deuterium oxide, 40° C., holding field 0.4 T
# Procedure: A sample of solid 1-^13C-2,2,2′,2′,2″,2″-hexadeuterotris(hydroxymethyl)nitromethane was subjected to a magnetic field of 6.56 T at a temperature of 2.5 K for 10 minutes. The sample was then removed from the centre of the magnet to the stray field (7 mT) for a duration 1 s and then returned to the magnet. After another 10 minutes the process was repeated one more.
# A sample of solid 1-^13C-2,2,2′,2′,2″,2″-hexadeuterotris(hydroxymethyl)nitromethane (20 mg) was subjected to the above-mentioned pumping procedure (see Examples 5-7) and then in less than 1 second moved to a holding field of 0.4 T where also a sample of deuterium oxide (3 ml) at a temperature of 40° C., stirred by nitrogen bubbling, was kept. […] The sample was inserted into the spectrometer and a ^13C-spectrum was recorded. […]
# A sample of solid 2-^13C-2,2-bis(trideuteromethyl)-1,1,3,3-tetradeuteropropane-1,3-diol (20 mg) was subjected to the above-mentioned pumping procedure (see Examples 5-7) and then in less than 1 second moved to a holding field of 0.4 T where also a sample of deuterium oxide (3 ml) at a temperature of 40° C., stirred by nitrogen bubbling, was kept. […] The sample was inserted into the spectrometer and a ^13C-spectrum was recorded. […]
# [3] = T1-values for the 13C atom (water solution and solid); type: physicochemical; conditions: 7 T
# Source text: as §1, §2
# [4] = T1 in the blood after injection of the dissolved polarised agent; type: in vivo; conditions: 300 mg dissolved in 10 ml Ringers Solution, 37° C., pH 7.4, injected
# Procedure: 300 mg of sterile Na2^13CO3 or NaH^13CO3 is placed inside a 10 ml plastic injection syringe. The gas inside the syringe is enriched with >20% […]. The syringe is placed inside a magnet (1-20 T) at a temperature of about 4 K (0.001-5 K) until thermodynamic equilibrium is reached.
# The syringe is removed and transported to the subject located in the MRI magnet. 10 ml of sterile Ringers Solution (at 37° C., pH 7.4) is aspirated and injected at a rate of 10 ml/sec immediately after the high T1 agent has dissolved. 13C MRI is performed using a fast pulse sequence. T1 in the blood is about 20 s and the distribution of the agent is followed on the MR imager.
# [5] = solid
# Source text: Where Mmax is the magnetisation of the sample after complete relaxation at the final field.
# This procedure can be repeated after the protons have repolarised again, successively building up the carbon polarisation until the spin-temperature of the two nuclei become the same. […] Generally fluorine relaxes even faster than protons and it would be possible to include a fluorine atom in the contrast agent molecule as an internal relaxation agent.
# It is also possible to use quadrupolar nuclei for this process. […] The magnetic storage field must be large enough to avoid overlap of the resonances of the wanted nucleus and any rapidly relaxing quadrupolar nuclei. It is known that this phenomenon causes the rapid relaxation of frozen ^129Xe in a low field, when spin diffusion to the quadrupolar ^131Xe becomes efficient.
Structure (SMILES),T1-value for the 13C atom [1] [s],Time until a clear solution was obtained [2],"T1-value for the 13C atom ([3]; H2O, air saturated, 37° C.) [s]","T1-value for the 13C atom ([3]; H2O, degassed, 37° C.) [s]","T1-value for the 13C atom ([3]; Solid, 2.5 K) [s]","T1-value for the 13C atom ([3]; Solid, 20° C.) [s]",T1 in the blood [4],further results
"[2H]C([2H])(O)[13C]([N+](=O)[O-])(C([2H])([2H])O)C([2H])([2H])O [1-^13C-2,2,2′,2′,2″,2″-hexadeuterotris(hydroxymethyl)nitromethane]",60,less than 1 S,95,102,198000,1320,,"T1-value for the 13C atom ([3]; Solid, −30° C.): 2820 s"
"[2H]C([2H])([2H])[13C](C([2H])([2H])[2H])(C([2H])([2H])O)C([2H])([2H])O [2-^13C-2,2-bis(trideuteromethyl)-1,1,3,3-tetradeuteropropane-1,3-diol]",96,less than 1 S,133,157,162000,237,,
O=[13C]([O-])[O-].[Na+].[Na+] [Na2^13CO3],,,,,,,about 20 s,
"O=[13C]([O-])O.[Na+] [NaH^13CO3, sodium bicarbonate—^13C]",,,,,,,about 20 s,
CC(=O)[O-].[Na+] [sodium acetate],,,,,,,,"T1,0 (time constant for relaxation at no external magnetic field) ([5]; carbonyl carbon): about 5 seconds; T1 of the carbonyl carbon ([5]; at 7 T): 1700 s; T1 of the carbonyl carbon ([5]; room temperature): 1700 s; T1 of the protons ([5]; room temperature): 31 s; T1 of the sodium ions ([5]; room temperature): 1.7 s"
